Reference: patent publication US20240100065A1, “METHODS FOR TREATING RECEPTOR-INTERACTING PROTEIN KINASE 1-MEDIATED DISEASES” (Genzyme Corporation, priority 2022, published 2024)
Values after ≈ are worked out from the molar mass of the structure shown. Values joined by “and” are separate entries in the source; they are usually repeats but may differ in a detail not shown here. Equal entries are not always repeated. Where two headings read alike, the source gives them in different places.

Tests used:
[1] = CSF concentration, CSF-to-unbound plasma concentration ratio (Part 1b); assay type: in vivo, healthy adult participants (human); details: human; for Kp: oral
Experimental: Compound 1 concentrations in CSF were measured after single oral dosing in two dedicated cohorts in Part 1b. Lumbar puncture was performed for CSF collection and only one CSF sample per participant was collected on Day 1. Given the limited number of CSF PK samples that were collected in this study, CSF PK parameters were not determined; instead, Compound 1 concentrations in CSF were reported and concentration ratio between CSF and unbound plasma was calculated.
PK population included all participants exposed to Compound 1 with no major or critical deviations related to Compound 1 and for whom PK data were considered sufficient and interpretable. PK parameters were summarized by descriptive statistics for each dose level group. Distribution of Tmax values was represented by histogram plots for each dose level group. In Part 1a, dose proportionality was assessed using a linear model on Cmax, AUClast and AUC. In Part 2, all PK analyses were performed separately for each regimen (OD and BID). Steady state was assessed on Ctrough using a non-linear model. Accumulation was assessed using a linear model on log-transformed accumulation ratio. Dose proportionality was assessed using a power model on Cmax and AUCtau on Day 1 and Day 14, separately. Variance components of log-transformed Cmax and AUCtau were estimated using a linear model. In Part 1b, CSF concentration was described by dose level group and CSF to plasma unbound concentration ratios calculated were described in the same way. 4β-hydroxycholesterol on Day 14 versus Day 1 pre-dose concentration ratios were summarized using descriptive statistics by dose level group and point estimates with 90% confidence interval (90% CI) for the geometric mean of the log-transformed Day14/Day1 ratio was calculated in Part 2.

pRIPK1 = biological target: T1, pRIPK1 (Homo sapiens, UniProt Q13546); assay: Population PK/PD analysis of pRIPK1; assay type: in vivo
T1 construct: Human PBMC are a primary cell type that express endogenous RIPK kinase; endogenous in cells; host or cells: human PBMC isolated from blood of healthy participants
T1 sequence (Q13546 1-671): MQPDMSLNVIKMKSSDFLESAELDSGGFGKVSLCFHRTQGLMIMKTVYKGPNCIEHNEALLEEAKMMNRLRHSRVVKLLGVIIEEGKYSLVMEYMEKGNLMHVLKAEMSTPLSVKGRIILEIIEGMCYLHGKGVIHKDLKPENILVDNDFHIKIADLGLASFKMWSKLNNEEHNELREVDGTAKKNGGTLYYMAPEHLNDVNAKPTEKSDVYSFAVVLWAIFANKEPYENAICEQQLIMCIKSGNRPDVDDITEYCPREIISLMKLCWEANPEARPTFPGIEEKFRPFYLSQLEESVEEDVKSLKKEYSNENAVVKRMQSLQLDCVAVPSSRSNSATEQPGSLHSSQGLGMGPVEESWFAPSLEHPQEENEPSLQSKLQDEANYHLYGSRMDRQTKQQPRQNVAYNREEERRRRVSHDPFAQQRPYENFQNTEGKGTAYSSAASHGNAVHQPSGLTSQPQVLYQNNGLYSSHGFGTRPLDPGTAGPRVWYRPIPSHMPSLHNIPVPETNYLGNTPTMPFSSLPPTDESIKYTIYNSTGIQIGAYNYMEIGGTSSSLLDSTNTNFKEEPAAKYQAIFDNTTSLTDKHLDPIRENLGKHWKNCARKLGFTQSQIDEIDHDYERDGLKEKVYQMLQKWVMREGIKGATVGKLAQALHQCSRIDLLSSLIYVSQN
Experimental: An exploratory population pharmacokinetic/pharmacodynamic analysis of phosphorylated receptor-interacting protein kinase 1(pRIPK1) in healthy participants after single (SAD) and repeated (MAD) administrations of Compound 1 was carried out to develop a population PK/PD model from data after single and repeated doses in healthy adults and to derive individual parameters for each dose cohort.
The population PK/PD analysis was performed using the stochastic approximation expectation maximization (SAEM) algorithm for nonlinear mixed-effects models implemented in MONOLIX software (R1 2020). The observed plasma concentrations were used to develop the model with plasma concentrations from placebo participants and blow limit of quantitation (BLQ) plasma concentrations from verum participants being fixed to zero. Classical direct and indirect inhibitory models were evaluated. Model selection was based on objective function value Akaike and Bayesian Information criteria as well as standard goodness-of-fit plots (Psychol Methods. 2012 June; 17(2):228-43; Pharmaceutics. 2020 June; 12(6): 578.). From selected final population PK/PD model, individual PD parameters were derived and summarized by descriptive statistical analyses by study and dose level.
A total of 433 samples in 70 participants was considered (101, 121 and 211 samples after placebo, single dose and repeated doses, respectively). No data from potential outliers were excluded. In placebo participants, a very large inter-cohort and inter-individual variability was observed. […] Selection of structural PK/PD model confirmed that a direct relationship best described the data overall.

pS166-RIPK1 = biological target: T2, pS166-RIPK1 (Homo sapiens, UniProt Q13546); assay: pS166-RIPK1 inhibition in vitro in microglia; assay type: cell-based
T2 construct: endogenous in cells
T2 sequence (Q13546 1-671): T1 sequence (Q13546 1-671)

[2] = 6-month rat toxicology study (NOAEL exposure); assay type: in vivo
[3] = Nonhuman primate toxicology study (NOAEL exposure); assay type: in vivo; details: 20 mg BID vs nonhuman primate study
[4] = 20 mg QD vs 6-month rat toxicology study

**Q.** What does the source list for `CC(C)(C(=O)N1CCOc2c(C#N)cncc2C1)C(F)F` [Compound 1, 4-(3,3-difluoro-2,2-dimethyl-propanoyl)-3,5-dihydro-2H-pyrido[3,4-f] [1,4]oxazepine-9-carbonitrile]?
**A.** CSF/unbound plasma ratio, mean values [1]: ~1.0; Kp ([1]; CSF / unbound plasma, Part 1b single dose fed, [T1H-T3H], read-out: CSF-to-unbound Plasma concentration ratio, geometric mean): 0.817; Kp ([1]; CSF / unbound plasma, Part 1b single dose fed, [T1H-T3H], read-out: CSF-to-unbound Plasma concentration ratio, mean): 0.84; Kp ([1]; CSF / unbound plasma, Part 1b single dose fed, [T1H-T3H], read-out: CSF-to-unbound Plasma concentration ratio, median): 0.732; Kp ([1]; CSF / unbound plasma, Part 1b single dose fed, [T4H-T6H], read-out: CSF-to-unbound Plasma concentration ratio, geometric mean): 0.755; Kp ([1]; CSF / unbound plasma, Part 1b single dose fed, [T4H-T6H], read-out: CSF-to-unbound Plasma concentration ratio, mean): 0.804; Kp ([1]; CSF / unbound plasma, Part 1b single dose fed, [T4H-T6H], read-out: CSF-to-unbound Plasma concentration ratio, median): 0.825; Kp ([1]; CSF / unbound plasma, Part 1b single dose fed, [T5H-T16H], read-out: CSF-to-unbound Plasma concentration ratio, geometric mean): 1.27; Kp ([1]; CSF / unbound plasma, Part 1b single dose fed, [T5H-T16H], read-out: CSF-to-unbound Plasma concentration ratio, mean): 1.27; Kp ([1]; CSF / unbound plasma, Part 1b single dose fed, [T5H-T16H], read-out: CSF-to-unbound Plasma concentration ratio, median): 1.31; Kp ([1]; CSF / unbound plasma, time intervals [T1H-T3H] or [T4H-T6H], read-out: Ratio CSF to unbound plasma): ~0.8; Kp ([1]; CSF and unbound plasma, read-out: CSF/unbound plasma ratio, mean values): ~1; Kp ([1]; CSF and unbound plasma, time interval [T8H-T10H], read-out: Ratio CSF to unbound plasma): ~1.3; EC91, plasma conc for 91% decrease in E0 (pRIPK1; derived typical value): 23.9 ng/mL; EC92, plasma conc for 92% decrease in E0 (pRIPK1; derived typical value): 30.7 ng/mL; EC93, plasma conc for 93% decrease in E0 (pRIPK1; derived typical value): 43.3 ng/mL; EC94, plasma conc for 94% decrease in E0 (pRIPK1; derived typical value): 76.1 ng/mL; EC95, plasma conc for 95% decrease in E0 (pRIPK1; derived typical value): 0.6 µg/mL; EC50 (pRIPK1; derived typical value, read-out: EC50, plasma conc for 50% decrease in E0 (converted)): 6.2 nM; EC90 (pRIPK1; derived typical value, read-out: EC90, plasma conc for 90% decrease in E0): 0.0197 µg/mL (≈ 0.0667 µM); 0(Gamma) (pRIPK1; population PK/PD model): 49.5%; E0, baseline effect (pRIPK1; population PK/PD model): 8541 AU_signal; σprop (pRIPK1; population PK/PD model): 44.5%; ω(E0) (pRIPK1; population PK/PD model): 73.7%; ω(IC50) (pRIPK1; population PK/PD model): 71.4%; ω(Imax) (pRIPK1; population PK/PD model): 192%; Gamma (pRIPK1; population PK/PD model, sigmoidal Imax): 1.17; Imax, maximum inhibitory effect on pRIPK1 (pRIPK1; population PK/PD model, typical value, SAD and MAD data): 95.1% and 95%; IC50 (pRIPK1; population PK/PD model, typical value, SAD and MAD data, read-out: IC50, plasma concentration needed for 50% of Imax (pRIPK1) (converted)): 5.69 nM; EC90 (pS166-RIPK1): 64 nM; Human Cmax and AUCtau, fold lower than exposure at NOAEL ([2]; 15 mg BID vs 6-month rat toxicology study): 10 fold; Human AUC0-24 h, fold lower than AUC0-24 at rat NOAEL ([2]; 20 mg BID vs female rats): < 8 fold; Human Cmax, fold lower than Cmax at rat NOAEL ([2]; 20 mg BID vs female rats): < 10 fold; Human AUC0-24, fold lower than exposure at NOAEL [2, 4]: 17 fold; Human Cmax, fold lower than exposure at NOAEL [2, 4]: 15 fold; Cmax ([2]; rat, in vivo, female rats, end of Week 26, 6-month study): 13.1 µM; AUC(0-t) ([2]; rat, in vivo, female rats, end of Week 26, 6-month study, read-out: AUC0-24 at the NOAEL): 126 µM·h; Safety margin relative to the NOAEL exposure [3]: 10 fold
